{"source": "patent US6022880A", "about": "“Substituted pyridylamino indoles” (Hoechst Marion Roussel, Inc., priority 1997, dated 2000)", "key": {"[1]": {"test_system": "rats (schedule-induced polydipsia)", "experiment": "Schedule-Induced Polydipsia in Rats", "format": "in vivo, rat (male Wistar)", "conditions": "i.p., daily; rats tested once a week", "excerpt": "Schedule-Induced Polydipsia in Rats\nFood deprived rates exposed to a fixed-interval feeding schedule and allowed free access to water develop an excessive drinking behavior known as polydipsia. This schedule-induced polydipsia (SIP) cannot be explained in terms of a physiological deficit due to water deprivation. Furthermore,it offers no benefit or reward to the rat (1). Just as SIP involves the exaggeration of the normal drinking behavior, the compulsive symptoms of obsessive-compulsive disorder (OCD) can be considered an exaggeration of normal human behaviors.\nMale Wistar rats (Charles River) weighing 180-220 grams were individually housed and maintained in accordance with the \"NIH Guide to Care and Use of Laboratory Animals\" (National Institute of Health Care Publications, No. 85-23, revised 1985) with a 12 hour light; 12 hour dark cycle and allowed free access to water. The rats were placed on a restricted diet which maintained 80% of their free feeding body weight. To induce polydipsia, rats were placed in operant chambers housed in sound attenuated boxes where a pellet dispenser automatically dispensed two 45 mg (Noyes) pellets on a fixed-interval 60 second (FI-60 sec.) schedule over a 150 minute test session. Water was available at all times in the operant chambers. After four weeks (Monday through Friday) of exposure to the FI-60 sec. feeding schedule, approximately 80% of the rats met a pre-determined criterion for water consumption (greater than 60 mls of water per session) and were considered polydipsic. Rats (N=8) were administered, intraperitoneally (IP), vehicle or the appropriate compound daily. Once dosing commenced, the rats were tested in the operant chambers once a week to assess SIP.\nCompounds were either dissolved or suspended in distilled water plus a drop of Tween 80 and injected IP in a dosage volume of 1 ml/kg. The final volume was prepared to account for salt content and the dosage was expressed as 100% base."}, "[2]": {"test_system": "norepinephrine uptake (active transport system)", "conditions": "high-affinity, sodium dependent active transport system; literature; read-out: Km (NE uptake); cited from earlier work"}, "[3]": {"target": "T1, 5HT3 receptor (Rattus norvegicus, UniProt P35563)", "T1 sequence (P35563 24-483)": "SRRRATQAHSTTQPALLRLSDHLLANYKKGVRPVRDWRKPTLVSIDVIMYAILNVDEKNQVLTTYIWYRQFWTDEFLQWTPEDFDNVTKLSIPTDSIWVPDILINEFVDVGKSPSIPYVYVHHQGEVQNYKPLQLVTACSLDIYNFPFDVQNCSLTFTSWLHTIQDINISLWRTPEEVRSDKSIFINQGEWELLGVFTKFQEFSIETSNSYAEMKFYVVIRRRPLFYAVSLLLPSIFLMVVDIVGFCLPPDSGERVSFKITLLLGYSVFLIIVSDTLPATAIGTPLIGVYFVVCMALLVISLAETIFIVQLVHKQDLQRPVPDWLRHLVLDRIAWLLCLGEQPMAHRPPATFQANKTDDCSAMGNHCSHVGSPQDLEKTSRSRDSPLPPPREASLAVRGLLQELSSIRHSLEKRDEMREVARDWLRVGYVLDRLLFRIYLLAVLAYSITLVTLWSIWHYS", "experiment": "biochemical", "format": "binding, rat (male Wistar, entorhinal cortex)", "method": "The homogenate is centrifuged at 48,000 g for 15 minutes at 4° C.\nThe filters are dried and counted in 10 ml of liquid scintillation cocktail."}, "[4]": {"test_system": "serotonin uptake, rat whole brain synaptosomes", "experiment": "Inhibition of [3H]-Serotonin Uptake in Rat Whole Brain Synaptosomes", "format": "biochemical, rat (male Wistar)", "conditions": "[3H]-5HT 50 nM, read-out: C: Inhibition of serotonin uptake, IC50", "method": "(C) Inhibition of [^3 H]-Serotonin Uptake in Rat Whole Brain Synaptosomes\n(§1) A. Animals: Male CR Wistar Rats (100-125 g).\nThe final desired concentration of ^3 H-5HT in the assay is 50 nM. The dilution factor is 0.8.\n5. For most assays, a 1 mM solution of the test compound is made up in suitable solvent and serially diluted such that the final concentration in the assay ranges from 2×10^-8 to 2×10^-5 M. Seven concentrations are used for each assay.\n(§2) Male Wistar rats are decapitated and the brain rapidly removed. Whole brain minus cerebella is weighed and homogenized in 9 volumes of ice-cold 0.32 M sucrose using a Potter-Elvejhem homogenizer. Homogenization should be done with 4-5 up and down strokes at medium speeds to minimize synaptosome lysis. The homogenate is centrifuged at 1000 g for 10 min. at 0-4° C. The supernatant (S1) is decanted and is used for uptake experiments.\n(§3) Tubes are incubated at 37° C. under a 95% O2 /5% CO2 atmosphere for 5 minutes. For each assay, 3 tubes are incubated with 20 μl of vehicle at 0° C. in an ice bath. After incubation all tubes are immediately centrifuged at 4000 g for 10 minutes. The supernatant fluid is aspirated and the pellets dissolved by adding 1 ml of solubilizer (Tritor. X-100+50% EtOH, 1:4 v/v). The tubes are vigorously vortexed, decanted into scintillation vials, and counted in 10 ml of Liquiscint scintillation counting cocktail. Active uptake is the difference between cpm at 37° C. and 0° C. The percent inhibition at each drug concentration is the mean of three determinations. IC50 values are derived from log-probit analysis."}, "[5]": {"test_system": "norepinephrine uptake, rat whole brain or hypothalamic synaptosomes", "experiment": "Inhibition of [3H]-Norepinephrine Uptake in Rat Whole Brain or Hypothalamic Synaptosomes", "format": "biochemical, rat (male Wistar)", "conditions": "[3H]-NE 50 nM, read-out: E: Inhibition of norepinephrine uptake, IC50", "method": "(E) Inhibition of [^3 H]-Norepinephrine Uptake in Rat Whole Brain or Hypothalamic Synaptosomes\nThis assay is used as a biochemical screen for potential antidepressants which block norepinephrine uptake.\nA. Animals: Male CR Wistar rats (100-125 g).\nThe final desired concentration of [^3 H]-NE in the assay is 50 nM. The dilution factor is 0.8.\n(§4) 5. For most assays, a 1 mM stock solution of the test compound is made up in a suitable solvent and serially diluted such that the final concentration in the assay ranges from 2×10^-8 to 2×10^-5 M. Seven concentrations are used for each assay.\nas §2, with “Either whole” for “Whole”, “cerebella or hypothalamus” for “cerebella”\nas §3, with “(Triton” for “(Tritor.”"}, "[6]": {"test_system": "dopamine uptake, rat striatal synaptosomes", "experiment": "Inhibition of 3H-Dopamine Uptake in Rat Striatal Synaptosomes", "format": "biochemical, rat (male Wistar)", "conditions": "3H-DA 50 nM, read-out: D: Inhibition of dopamine uptake, IC50", "method": "(D) Inhibition of ^3 H-Dopamine Uptake in Rat Striatal Synaptosomes\nThis assay is used to show differential drug effects on dopamine uptake versus norepinephrine uptake and to identify therapeutic agents for diseases where the potentiation of dopaminergic activity may be helpful (e.g. Parkinson's Disease).\nas §1\nThe final desired concentration of ^3 H-DA in the assay is 50 nM. The dilution factor is 0.9. Therefore, the KHBB is made up to contain 55.5 nM [^3 H]-5DA.\nas §4, with “assay. Higher or lower concentrations may be used depending on the potency of the compound.” for “assay.”\nas §2, with “Corpora striata are rapidly removed,” for “Whole brain minus cerebella is”\nas §3, with “(Triton” for “(Tritor.”"}, "[7]": {"target": "T2, 5HT1A receptor (Rattus norvegicus, UniProt P19327)", "T2 construct": "Hippocampi are removed, weighed and homogenized in 20 volumes of 0.05 M Tris buffer; from tissue; host or cells: rat hippocampus membranes (male Wistar)", "T2 sequence (P19327 1-422)": "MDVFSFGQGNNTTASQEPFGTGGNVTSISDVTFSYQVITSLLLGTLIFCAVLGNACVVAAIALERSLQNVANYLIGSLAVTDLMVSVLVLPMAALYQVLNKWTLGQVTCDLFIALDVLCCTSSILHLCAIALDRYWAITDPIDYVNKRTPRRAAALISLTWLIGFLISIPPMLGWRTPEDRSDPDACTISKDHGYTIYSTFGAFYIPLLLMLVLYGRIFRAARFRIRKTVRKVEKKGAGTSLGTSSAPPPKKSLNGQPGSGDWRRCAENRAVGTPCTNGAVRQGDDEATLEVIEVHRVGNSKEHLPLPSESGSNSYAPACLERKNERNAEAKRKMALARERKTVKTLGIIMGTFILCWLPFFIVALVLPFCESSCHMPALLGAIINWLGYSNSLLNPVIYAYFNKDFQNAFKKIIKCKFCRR", "experiment": "[3H]DPAT Binding to Serotonin Receptors of 5HT1A Type", "parameters": "species or system rat (male Wistar, hippocampus)", "conditions": "[3H]DPAT 0.5 nM, rat hippocampal membranes", "quoted_text": "The purpose of this assay is to determine the affinity of test compounds for the 5HT1A receptor in the brain.\nSerotonin creatinine sulfate. 0.5 mM stock solution is made up in 0.01 N HCl and 20 μl added to 3 tubes for determination of nonspecific binding (final concentration=10 μM).\nTest Compounds. For most assays, a 1 mM stock solution is made up in a suitable solvent and serially diluted, such that the final concentration in the assay ranges from 2×10^-5 to 2×10^-8 M. Seven concentrations are used for each assay.\nMale Wistar rats are sacrificed by decapitation. Hippocampi are removed, weighed and homogenized in 20 volumes of 0.05 M Tris buffer, pH 7.7. The homogenate is centrifuged at 48,000 g for 10 minutes and the supernatant is discarded. […]\nTubes are incubated for 15 minutes at 25° C. […] The filters are then placed into scintillation vials with 10 ml of Liquiscint scintillation cocktail and counted.\nSpecific binding is defined as the difference between total binding and binding in the presence of 10 μM 5HT. IC50 values are calculated from the percent specific binding at each drug concentration. […]\nTubes are incubated for 15 minutes at 25° C. […] The filters are then placed into scintilltion vials with 10 ml of Liquiscint scintillation cocktail and counted. […] IC50 values are calculated from the percent specific binding at each drug concentration."}, "[8]": {"conditions": "[3H]-GR65630 0.4 nM, rat entorhinal cortex, read-out: B: 5HT3 receptor binding, IC50"}}, "note": "Like-named read-outs stand apart in the source and are kept apart here.", "data": [{"smiles": "CNCCC(Oc1ccc(C(F)(F)F)cc1)c1ccccc1", "note": "(stereo not drawn) [Fluoxetine, reference compound]", "values": [{"measurement": "inhibition of SIP (schedule-induced polydipsia), active dose", "setting": "[1]", "value": "Active at 5"}]}, {"smiles": "NC[C@H](O)c1ccc(O)c(O)c1", "note": "[norepinephrine]", "values": [{"measurement": "Km", "setting": "[2]", "value": "0.1 to 1", "unit": "µM"}]}, {"smiles": "CC(C)CN(c1ccncc1)c1csc2cc(Cl)ccc12.Cl", "note": "[6-Chloro3-[(2-methylpropyl)(4-pyridinyl)amino]benzo[b]thiophen hydrochloride]", "values": [{"measurement": "inhibition of SIP (schedule-induced polydipsia), active dose", "setting": "[1]", "value": "Active at 15"}]}, {"smiles": "CN1[C@@H]2CC[C@H]1C[C@@H](OC(=O)c1cc(Cl)cc(Cl)c1)C2", "note": "[MDL 72222, reference compound]", "values": [{"measurement": "IC50", "setting": "[3]", "value": 530, "unit": "nM"}]}, {"smiles": "CCCN(c1ccncc1)c1csc2cc(Cl)ccc12.Cl", "note": "[6-Chloro-3-(propyl-4-pyridinylamino)benzo[b]thiophene hydrochloride]", "values": [{"measurement": "IC50", "setting": "[4]", "value": 60, "unit": "nM"}, {"measurement": "IC50", "setting": "[5]", "value": 210, "unit": "nM"}, {"measurement": "IC50", "setting": "[3]; [8]", "value": 2600, "unit": "nM"}, {"measurement": "IC50", "setting": "[6]", "value": 560, "unit": "nM"}, {"measurement": "inhibition of SIP (schedule-induced polydipsia), active dose", "setting": "[1]", "value": "Active at 30 and 15"}]}, {"smiles": "CC(C)CN(c1ccncc1)c1csc2cc(C(F)(F)F)ccc12.Cl", "note": "[3-[(2-Methylpropyl)(4-pyridinylamino)]-6-trifluoromethylbenzo[b]thiophene hydrochloride]", "values": [{"measurement": "inhibition of SIP (schedule-induced polydipsia), active dose", "setting": "[1]", "value": "Active at 15"}]}, {"smiles": "c1ccc2c(Nc3ccncc3)c[nH]c2c1", "note": "[3-(4-pyridinylamino)-1H-indole]", "values": [{"measurement": "IC50", "setting": "[4]", "value": 14500, "unit": "nM"}, {"measurement": "IC50", "setting": "[5]", "value": 1000, "unit": "nM"}, {"measurement": "IC50", "setting": "[7]", "value": 6400, "unit": "nM"}, {"measurement": "IC50", "setting": "[3]; [8]", "value": 5500, "unit": "nM"}]}, {"smiles": "CN(C)CCCN1c2ccccc2CCc2ccc(Cl)cc21", "note": "[Clomipramine, reference compound]", "values": [{"measurement": "inhibition of SIP (schedule-induced polydipsia), active dose", "setting": "[1]", "value": "Active at 5"}]}]}
